# Reference: PubChem BioAssay (NCI)
#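 96-well plates; 48 h exposure; 5 concentrations. Endpoints by linear interpolation between flanking doses. Not reached: highest tested concentration assigned. TGI is the concentration that stops growth completely.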
# System: RXF-631 renal
# Test: NCI anticancer screen, dose series, 48 h
smiles,measurement,value
NCCCNCCSSCc1ccccc1CSSCCNCCCN,TGI,> 100 µM
